Measured values from ChEMBL document CHEMBL2380247, “Synthesis and biological evaluation of novel aliphatic amido-quaternary ammonium salts for anticancer chemotherapy: part II” (2013).
Calls of active or inactive are those of the source. The calls are words filed in the database; no cut-off is given here.

How the values were obtained:
NCI-H23 [1] = test: Antiproliferative activity against human NCI-H23 cells at 3 uM by SRB assay; type: functional
HCT-15 [2] = test: Antiproliferative activity against human HCT15 cells by SRB assay; type: functional
NCI-H23 [3] = test: Antiproliferative activity against human NCI-H23 cells at 0.3 uM by SRB assay; type: functional
NUGC-3 [4] = test: Antiproliferative activity against human NUGC3 cells by SRB assay; type: functional
HCT-15 [5] = test: Antiproliferative activity against human HCT15 cells at 3 uM by SRB assay; type: functional
PC-3 [6] = test: Antiproliferative activity against human PC3 cells at 1 uM by SRB assay; type: functional
[7] = target: Rho-related GTP-binding protein RhoB (Homo sapiens) (UniProt P62745); test: Transactivation of RhoB in human HeLa cells by luciferase reporter assay; type: cell-based
Chain of Rho-related GTP-binding protein RhoB (Homo sapiens) (P62745 whole entry): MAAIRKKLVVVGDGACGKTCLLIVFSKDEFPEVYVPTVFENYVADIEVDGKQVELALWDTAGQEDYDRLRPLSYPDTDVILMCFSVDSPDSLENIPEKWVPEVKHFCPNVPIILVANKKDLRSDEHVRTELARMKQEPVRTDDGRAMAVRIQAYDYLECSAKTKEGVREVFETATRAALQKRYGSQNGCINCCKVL

PC-3 [8] = test: Antiproliferative activity against human PC3 cells at 0.1 uM by SRB assay; type: functional
MDA-MB-231 [9] = test: Antiproliferative activity against human MDA-MB-231 cells at 3 uM by SRB assay; type: functional
ACHN [10] = test: Antiproliferative activity against human ACHN cells by SRB assay; type: functional
MDA-MB-231 [11] = test: Antiproliferative activity against human MDA-MB-231 cells by SRB assay; type: functional
NUGC-3 [12] = test: Antiproliferative activity against human NUGC3 cells at 0.3 uM by SRB assay; type: functional
MDA-MB-231 [13] = test: Antiproliferative activity against human MDA-MB-231 cells at 1 uM by SRB assay; type: functional
PC-3 [14] = test: Antiproliferative activity against human PC3 cells at 10 uM by SRB assay; type: functional
PC-3 [15] = test: Antiproliferative activity against human PC3 cells by SRB assay; type: functional
HCT-15 [16] = test: Antiproliferative activity against human HCT15 cells at 1 uM by SRB assay; type: functional
NUGC-3 [17] = test: Antiproliferative activity against human NUGC3 cells at 1 uM by SRB assay; type: functional
PC-3 [18] = test: Antiproliferative activity against human PC3 cells at 3 uM by SRB assay; type: functional
MDA-MB-231 [19] = test: Antiproliferative activity against human MDA-MB-231 cells at 0.3 uM by SRB assay; type: functional
ACHN [20] = test: Antiproliferative activity against human ACHN cells at 1 uM by SRB assay; type: functional
PC-3 [21] = test: Antiproliferative activity against human PC3 cells at 0.3 uM by SRB assay; type: functional
NUGC-3 [22] = test: Antiproliferative activity against human NUGC3 cells at 3 uM by SRB assay; type: functional
ACHN [23] = test: Antiproliferative activity against human ACHN cells at 3 uM by SRB assay; type: functional
NCI-H23 [24] = test: Antiproliferative activity against human NCI-H23 cells at 10 uM by SRB assay; type: functional
ACHN [25] = test: Antiproliferative activity against human ACHN cells at 0.3 uM by SRB assay; type: functional
HCT-15 [26] = test: Antiproliferative activity against human HCT15 cells at 0.1 uM by SRB assay; type: functional
HCT-15 [27] = test: Antiproliferative activity against human HCT15 cells at 0.3 uM by SRB assay; type: functional
MDA-MB-231 [28] = test: Antiproliferative activity against human MDA-MB-231 cells at 10 uM by SRB assay; type: functional
NCI-H23 [29] = test: Antiproliferative activity against human NCI-H23 cells at 1 uM by SRB assay; type: functional
NCI-H23 [30] = test: Antiproliferative activity against human NCI-H23 cells by SRB assay; type: functional
ACHN [31] = test: Antiproliferative activity against human ACHN cells at 0.1 uM by SRB assay; type: functional
NUGC-3 [32] = test: Antiproliferative activity against human NUGC3 cells at 10 uM by SRB assay; type: functional
HCT-15 [33] = test: Antiproliferative activity against human HCT15 cells at 10 uM by SRB assay; type: functional
NCI-H23 [34] = test: Antiproliferative activity against human NCI-H23 cells at 0.1 uM by SRB assay; type: functional
ACHN [35] = test: Antiproliferative activity against human ACHN cells at 10 uM by SRB assay; type: functional
MDA-MB-231 [36] = test: Antiproliferative activity against human MDA-MB-231 cells at 0.1 uM by SRB assay; type: functional
NUGC-3 [37] = test: Antiproliferative activity against human NUGC3 cells at 0.1 uM by SRB assay; type: functional
[38] = target: Rho-related GTP-binding protein RhoB (Homo sapiens) (UniProt P62745); test: Inhibition of RhoB transactivation in human HeLa cells by luciferase reporter assay; type: cell-based

SMILES: CCCCCCCCCCCCCC(=O)N(C)CC[N+](C)(C)C
- growth, % of control at 3 µM (NCI-H23 [1]): 36.1%
- GI50 (HCT-15 [2]): 1.47 µM
- growth, % of control at 0.3 µM (NCI-H23 [3]): 80.1%
- GI50 (NUGC-3 [4]): 0.22 µM
- growth, % of control at 3 µM (HCT-15 [5]): 53.1%
- growth, % of control at 1 µM (PC-3 [6]): 38.4%
- Activity [7]: Active
- growth, % of control at 0.1 µM (PC-3 [8]): 96.6%
- growth, % of control at 3 µM (MDA-MB-231 [9]): 26.6%
- GI50 (ACHN [10]): 0.26 µM
- GI50 (MDA-MB-231 [11]): 0.8 µM
- growth, % of control at 0.3 µM (NUGC-3 [12]): 70.9%
- growth, % of control at 1 µM (MDA-MB-231 [13]): 74.2%
- growth, % of control at 10 µM (PC-3 [14]): -21.7%
- GI50 (PC-3 [15]): 0.41 µM
- growth, % of control at 1 µM (HCT-15 [16]): 82.4%
- growth, % of control at 1 µM (NUGC-3 [17]): 22.5%
- growth, % of control at 3 µM (PC-3 [18]): -4.8%
- growth, % of control at 0.3 µM (MDA-MB-231 [19]): 94.7%
- growth, % of control at 1 µM (ACHN [20]): 34.4%
- growth, % of control at 0.3 µM (PC-3 [21]): 96.4%
- growth, % of control at 3 µM (NUGC-3 [22]): -3.9%
- growth, % of control at 3 µM (ACHN [23]): 9.6%
- growth, % of control at 10 µM (NCI-H23 [24]): 4.1%
- growth, % of control at 0.3 µM (ACHN [25]): 73.3%
- growth, % of control at 0.1 µM (HCT-15 [26]): 91%
- growth, % of control at 0.3 µM (HCT-15 [27]): 90.4%
- growth, % of control at 10 µM (MDA-MB-231 [28]): 5.2%
- growth, % of control at 1 µM (NCI-H23 [29]): 79.7%
- GI50 (NCI-H23 [30]): 0.92 µM
- growth, % of control at 0.1 µM (ACHN [31]): 84.4%
- growth, % of control at 10 µM (NUGC-3 [32]): -11.9%
- growth, % of control at 10 µM (HCT-15 [33]): 19.2%
- growth, % of control at 0.1 µM (NCI-H23 [34]): 99.8%
- growth, % of control at 10 µM (ACHN [35]): -15.9%
- growth, % of control at 0.1 µM (MDA-MB-231 [36]): 98.5%
- growth, % of control at 0.1 µM (NUGC-3 [37]): 100%

SMILES: CCCCCCCCCCCCCC(=O)NCCC[N+](C)(C)C
- growth, % of control at 3 µM (NCI-H23 [1]): 39.8%
- GI50 (HCT-15 [2]): 0.79 µM
- growth, % of control at 0.3 µM (NCI-H23 [3]): 96.4%
- GI50 (NUGC-3 [4]): 0.43 µM
- growth, % of control at 3 µM (HCT-15 [5]): 33%
- growth, % of control at 1 µM (PC-3 [6]): 44.6%
- Activity [7]: Active
- growth, % of control at 0.1 µM (PC-3 [8]): 85.2%
- growth, % of control at 3 µM (MDA-MB-231 [9]): 58.1%
- GI50 (ACHN [10]): 1.56 µM
- GI50 (MDA-MB-231 [11]): 1.48 µM
- growth, % of control at 0.3 µM (NUGC-3 [12]): 73.2%
- growth, % of control at 1 µM (MDA-MB-231 [13]): 80.6%
- growth, % of control at 10 µM (PC-3 [14]): -22.8%
- GI50 (PC-3 [15]): 0.39 µM
- growth, % of control at 1 µM (HCT-15 [16]): 71.6%
- growth, % of control at 1 µM (NUGC-3 [17]): 46.7%
- growth, % of control at 3 µM (PC-3 [18]): -4.97%
- growth, % of control at 0.3 µM (MDA-MB-231 [19]): 81.2%
- growth, % of control at 1 µM (ACHN [20]): 77.1%
- growth, % of control at 0.3 µM (PC-3 [21]): 87.3%
- growth, % of control at 3 µM (NUGC-3 [22]): 28.7%
- growth, % of control at 3 µM (ACHN [23]): 58.1%
- growth, % of control at 10 µM (NCI-H23 [24]): -15.6%
- growth, % of control at 0.3 µM (ACHN [25]): 77.2%
- growth, % of control at 0.1 µM (HCT-15 [26]): 83.5%
- growth, % of control at 0.3 µM (HCT-15 [27]): 82.5%
- growth, % of control at 10 µM (MDA-MB-231 [28]): 19.1%
- growth, % of control at 1 µM (NCI-H23 [29]): 80.9%
- GI50 (NCI-H23 [30]): 1.02 µM
- growth, % of control at 0.1 µM (ACHN [31]): 83.3%
- growth, % of control at 10 µM (NUGC-3 [32]): 14.8%
- growth, % of control at 10 µM (HCT-15 [33]): 14.7%
- growth, % of control at 0.1 µM (NCI-H23 [34]): 99.4%
- growth, % of control at 10 µM (ACHN [35]): 25.4%
- growth, % of control at 0.1 µM (MDA-MB-231 [36]): 83.4%
- growth, % of control at 0.1 µM (NUGC-3 [37]): 84.9%

SMILES: CCCCCCCCCCCCCCCCCC(=O)NCCC[N+](C)(C)C
- growth, % of control at 3 µM (NCI-H23 [1]): 56.5%
- GI50 (HCT-15 [2]): 0.79 µM
- growth, % of control at 0.3 µM (NCI-H23 [3]): 103%
- inhibition [38]: Active
- GI50 (NUGC-3 [4]): 0.97 µM
- growth, % of control at 3 µM (HCT-15 [5]): 30.8%
- growth, % of control at 1 µM (PC-3 [6]): 51.3%
- Activity [7]: Active
- growth, % of control at 0.1 µM (PC-3 [8]): 97.5%
- growth, % of control at 3 µM (MDA-MB-231 [9]): 59.9%
- GI50 (ACHN [10]): 3.4 µM
- GI50 (MDA-MB-231 [11]): 2.41 µM
- growth, % of control at 0.3 µM (NUGC-3 [12]): 93%
- growth, % of control at 1 µM (MDA-MB-231 [13]): 92.5%
- growth, % of control at 10 µM (PC-3 [14]): -14.7%
- GI50 (PC-3 [15]): 0.52 µM
- growth, % of control at 1 µM (HCT-15 [16]): 64.3%
- growth, % of control at 1 µM (NUGC-3 [17]): 63.8%
- growth, % of control at 3 µM (PC-3 [18]): 3.63%
- growth, % of control at 0.3 µM (MDA-MB-231 [19]): 98.1%
- growth, % of control at 1 µM (ACHN [20]): 85%
- growth, % of control at 0.3 µM (PC-3 [21]): 97.7%
- growth, % of control at 3 µM (NUGC-3 [22]): 37.7%
- growth, % of control at 3 µM (ACHN [23]): 64.3%
- growth, % of control at 10 µM (NCI-H23 [24]): 5.43%
- growth, % of control at 0.3 µM (ACHN [25]): 101%
- growth, % of control at 0.1 µM (HCT-15 [26]): 90.7%
- growth, % of control at 0.3 µM (HCT-15 [27]): 86.5%
- growth, % of control at 10 µM (MDA-MB-231 [28]): 29.9%
- growth, % of control at 1 µM (NCI-H23 [29]): 90.7%
- GI50 (NCI-H23 [30]): 1.68 µM
- growth, % of control at 0.1 µM (ACHN [31]): 99.2%
- growth, % of control at 10 µM (NUGC-3 [32]): 15.3%
- growth, % of control at 10 µM (HCT-15 [33]): 11.2%
- growth, % of control at 0.1 µM (NCI-H23 [34]): 102%
- growth, % of control at 10 µM (ACHN [35]): 42.8%
- growth, % of control at 0.1 µM (MDA-MB-231 [36]): 96%
- growth, % of control at 0.1 µM (NUGC-3 [37]): 98.4%
